Reference: ChEMBL document CHEMBL5380809, “Discovery of Novel N-Hydroxy-1,2,4-oxadiazole-5-formamides as ASM Direct Inhibitors for the Treatment of Atherosclerosis” (J Med Chem, 2023)
The source made the active and inactive calls. No cut-off for these calls is given here.

What was measured:
[1] = tested on: HUVEC; assay: Effect on extracellular S1P level in LPS-induced HUVEC cells upto 5 uM measured after 22 hrs by ELISA method; format: functional, cell-based; conditions: Homo sapiens
[2] = tested on: HUVEC; assay: Downregulation of extracellular ceramide level in LPS-induced HUVEC cells upto 5 uM measured after 22 hrs by ELISA method; format: functional, cell-based; conditions: Homo sapiens
[3] = tested on: HUVEC; assay: Downregulation of intracellular ceramide level in Ox-LDL-induced HUVEC cells at 5 uM measured after 22 hrs by ELISA method; format: functional, cell-based; conditions: Homo sapiens
[4] = tested on: Mus musculus; assay: In vivo inhibition of aSMase in C57BL/6 mouse assessed as decrease in plasma ceramide level at 6 to 40 mg/kg, ip bid for 1 week by ELISA method; format: functional, organism-based; conditions: dose 6-40 mg/kg, time 1.0 weeks
[5] = tested on: HUVEC; assay: Antiinflammatory activity against HUVEC cells assessed as decrease in Ox-LDL-induced IL-6 mRNA level at 5 uM measured after 22 hrs by RT-PCR analysis; format: functional, cell-based; conditions: Homo sapiens
[6] = tested on: HUVEC; assay: Downregulation of intracellular ceramide level in HUVEC cells at 5 uM measured after 22 hrs by ELISA method; format: functional, cell-based; conditions: Homo sapiens
[7] = tested on: Mus musculus; assay: Antiatherosclerotic activity in high-fat diet fed ApoE-/- mouse assessed as reduction in plasma ceramide level administered intraperitoneally twice daily measured after 8 weeks by ELISA method; format: functional, organism-based; conditions: dose 12-40 mg/kg, route ip
[8] = tested on: HUVEC; assay: Upregulation of extracellular sphingomyelin level in Ox-LDL-induced HUVEC cells upto 5 uM measured after 22 hrs by ELISA method; format: functional, cell-based; conditions: Homo sapiens
[9] = MRT (0 to infinity) in ICR mouse at 10 mg/kg, po measured for 0.083 to 24 hrs by LC-MS/MS analysis; format: ADME, organism-based; conditions: in vivo, time 0.083-24 hrs
[10] = Cmax in ICR mouse at 1 mg/kg, iv measured for 0.083 to 24 hrs by LC-MS/MS analysis; format: ADME, organism-based; parameters: time lower 0.083 hrs, dose 1 mg/kg, time upper 24 hrs, route iv; conditions: in vivo
[11] = AUC (0 to t) in ICR mouse at 10 mg/kg, po measured for 0.083 to 24 hrs by LC-MS/MS analysis; format: ADME, organism-based; parameters: time upper 24 hrs, time lower 0.083 hrs, dose 10 mg/kg, route po; conditions: in vivo
[12] = tested on: Mus musculus; assay: Antiatherosclerotic activity in high-fat diet fed ApoE-/- mouse assessed as reduction in plasma total cholesterol level at 12 to 40 mg/kg, ip bid measured after 8 weeks; format: functional, organism-based; conditions: dose 12-40 mg/kg
[13] = tested on: Mus musculus; assay: In vivo inhibition of aSMase in C57BL/6 mouse assessed as decrease in liver S1P level at 6 to 40 mg/kg, ip bid for 1 week by ELISA method; format: functional, organism-based; conditions: dose 6-40 mg/kg, time 1.0 weeks
[14] = tested on: HUVEC; assay: Antiinflammatory activity against HUVEC cells assessed as decrease in Ox-LDL-induced MCP-1 mRNA level at 5 uM measured after 22 hrs by RT-PCR analysis; format: functional, cell-based; conditions: Homo sapiens
[15] = tested on: HUVEC; assay: Upregulation of intracellular sphingomyelin level in LPS-induced HUVEC cells measured after 22 hrs by ELISA method; format: functional, cell-based; conditions: Homo sapiens, dose <= 5.0 µM
[16] = tested on: HUVEC; assay: Upregulation of intracellular sphingomyelin level in Ox-LDL-induced HUVEC cells measured after 22 hrs by ELISA method; format: functional, cell-based; conditions: Homo sapiens, dose <= 5.0 µM
[17] = MRT (0 to infinity) in ICR mouse at 1 mg/kg, iv measured for 0.083 to 24 hrs by LC-MS/MS analysis; format: ADME, organism-based; conditions: in vivo, time 0.083-24 hrs
[18] = tested on: HUVEC; assay: Effect on extracellular S1P level in Ox-LDL-induced HUVEC cells upto 5 uM measured after 22 hrs by ELISA method; format: functional, cell-based; conditions: Homo sapiens
[19] = Half life in ICR mouse at 1 mg/kg, iv measured for 0.083 to 24 hrs by LC-MS/MS analysis; format: ADME, organism-based; conditions: in vivo, time 0.083-24 hrs
[20] = Tmax in ICR mouse at 1 mg/kg, iv measured for 0.083 to 24 hrs by LC-MS/MS analysis; format: ADME, organism-based; conditions: in vivo, time 0.083-24 hrs
[21] = tested on: Mus musculus; assay: In vivo inhibition of aSMase in C57BL/6 mouse assessed as decrease in plasma S1P level at 6 to 40 mg/kg, ip bid for 1 week by ELISA method; format: functional, organism-based; conditions: dose 6-40 mg/kg, time 1.0 weeks
[22] = Apparent volume of distribution in ICR mouse at 1 mg/kg, iv measured for 0.083 to 24 hrs by LC-MS/MS analysis; format: ADME, organism-based; conditions: in vivo, time 0.083-24 hrs, read-out: Vz
[23] = tested on: Mus musculus; assay: Antiatherosclerotic activity in high-fat diet fed ApoE-/- mouse assessed as reduction in aortic arch lipid accumulation at 12 to 40 mg/kg, ip bid measured after 8 weeks; format: functional, organism-based; conditions: dose 12-40 mg/kg
[24] = tested on: HUVEC; assay: Antiinflammatory activity against HUVEC cells assessed as decrease in LPS-induced TNF-alpha level measured after 22 hrs by ELISA method; format: functional, cell-based; conditions: Homo sapiens, dose 1-5 µM
[25] = Half life in ICR mouse at 10 mg/kg, po measured for 0.083 to 24 hrs by LC-MS/MS analysis; format: ADME, organism-based; conditions: in vivo, time 0.083-24 hrs
[26] = AUC (0 to infinity) in ICR mouse at 10 mg/kg, po measured for 0.083 to 24 hrs by LC-MS/MS analysis; format: ADME, organism-based; parameters: time lower 0.083 hrs, dose 10 mg/kg, time upper 24 hrs, route po; conditions: in vivo
[27] = Cmax in ICR mouse at 10 mg/kg, po measured for 0.083 to 24 hrs by LC-MS/MS analysis; format: ADME, organism-based; parameters: time upper 24 hrs, time lower 0.083 hrs, dose 10 mg/kg, route po; conditions: in vivo
[28] = tested on: Mus musculus; assay: In vivo inhibition of aSMase in C57BL/6 mouse assessed as decrease in liver ceramide level at 6 to 40 mg/kg, ip bid for 1 week by ELISA method; format: functional, organism-based; conditions: dose 6-40 mg/kg, time 1.0 weeks
[29] = tested on: HUVEC; assay: Downregulation of intracellular ceramide level in LPS-induced HUVEC cells at 5 uM measured after 22 hrs by ELISA method; format: functional, cell-based; conditions: Homo sapiens
[30] = MRT (0 to t) in ICR mouse at 1 mg/kg, iv measured for 0.083 to 24 hrs by LC-MS/MS analysis; format: ADME, organism-based; conditions: in vivo, time 0.083-24 hrs
[31] = AUC (0 to infinity ) in ICR mouse at 1 mg/kg, iv measured for 0.083 to 24 hrs by LC-MS/MS analysis; format: ADME, organism-based; parameters: time upper 24 hrs, time lower 0.083 hrs, dose 1 mg/kg, route iv; conditions: in vivo
[32] = tested on: Mus musculus; assay: In vivo inhibition of aSMase in C57BL/6 mouse assessed as decrease in plasma sphingomyelin level at 6 to 40 mg/kg, ip bid for 1 week by ELISA method; format: functional, organism-based; conditions: dose 6-40 mg/kg, time 1.0 weeks
[33] = Tmax in ICR mouse at 10 mg/kg, po measured for 0.083 to 24 hrs by LC-MS/MS analysis; format: ADME, organism-based; conditions: in vivo, time 0.083-24 hrs
[34] = tested on: HUVEC; assay: Cytotoxicity against HUVEC cells assessed as cell growth inhibition at 0.5 to 20 uM incubated for 24 to 48 hrs by MTT assay; format: toxicity, cell-based; conditions: human, dose lower 0.5 µM, time lower 24 hrs, dose upper 20 µM, time upper 48 hrs
[35] = Oral bioavailability in ICR mouse at 10 mg/kg measured for 0.083 to 24 hrs by LC-MS/MS analysis; format: ADME, organism-based; conditions: in vivo, time 0.083-24 hrs
[36] = Clearance in ICR mouse at 1 mg/kg, iv measured for 0.083 to 24 hrs by LC-MS/MS analysis; format: ADME, organism-based; conditions: in vivo, time 0.083-24 hrs
[37] = tested on: HUVEC; assay: Effect on extracellular S1P level in HUVEC cells upto 5 uM measured after 22 hrs by ELISA method; format: functional, cell-based; conditions: Homo sapiens
[38] = tested on: HUVEC; assay: Upregulation of extracellular sphingomyelin level in HUVEC cells upto 5 uM measured after 22 hrs by ELISA method; format: functional, cell-based; conditions: Homo sapiens
[39] = MRT (0 to t) in ICR mouse at 10 mg/kg, po measured for 0.083 to 24 hrs by LC-MS/MS analysis; format: ADME, organism-based; conditions: in vivo, time 0.083-24 hrs

SMILES: O=C(NO)c1nc(-c2ccc(COc3ccc(Br)cc3)cc2)no1
- Activity [1]: inactive
- Activity [2]: Active
- Activity [3]: Active
- Activity [4]: Active
- Activity [5]: Active
- Activity [6]: Active
- Activity [7]: Dose-Dependent Effect
- Activity [8]: Active
- MRT inf [9]: 21 min
- Cmax [10]: 787 ng/mL
- AUC(0-t) [11]: 805 ng·h/mL
- Activity [12]: inactive
- Activity [13]: Active
- Activity [14]: Active
- Activity [15]: Dose-Dependent Effect
- Activity [16]: Dose-Dependent Effect
- MRT inf [17]: 5.22 min
- Activity [18]: inactive
- half-life [19]: 12 min
- Tmax [20]: 4.98 min
- Activity [21]: inactive
- Vd [22]: 1.28 L/kg
- Activity [23]: Active
- Activity [24]: Dose-Dependent Effect
- half-life [25]: 49.8 min
- AUC(0-inf) [26]: 809 ng·h/mL
- Cmax [27]: 2760 ng/mL
- Activity [28]: Active
- Activity [29]: Active
- MRT last [30]: 4.62 min
- AUC(0-inf) [31]: 228 ng·h/mL
- Activity [32]: Active
- Tmax [33]: 4.98 min
- Activity [34]: Non-Toxic
- bioavailability [35]: 35.4%
- clearance [36]: 73.2 mL/min/kg
- Activity [37]: inactive
- Activity [38]: Active
- MRT last [39]: 19.2 min
